Usually IC50 stands for the concentration at which inhibition is half-maximal.

The experiment deals with T1, Follicle Stimulating Hormone Receptor (FSHR) (Homo sapiens, UniProt P23945).
T1 construct: HA (N); expressed in transfected cells; host or cells: CHO-K1, transient transfection, pHM6 vector (CMV promoter)
T1 sequence (P23945 18-695): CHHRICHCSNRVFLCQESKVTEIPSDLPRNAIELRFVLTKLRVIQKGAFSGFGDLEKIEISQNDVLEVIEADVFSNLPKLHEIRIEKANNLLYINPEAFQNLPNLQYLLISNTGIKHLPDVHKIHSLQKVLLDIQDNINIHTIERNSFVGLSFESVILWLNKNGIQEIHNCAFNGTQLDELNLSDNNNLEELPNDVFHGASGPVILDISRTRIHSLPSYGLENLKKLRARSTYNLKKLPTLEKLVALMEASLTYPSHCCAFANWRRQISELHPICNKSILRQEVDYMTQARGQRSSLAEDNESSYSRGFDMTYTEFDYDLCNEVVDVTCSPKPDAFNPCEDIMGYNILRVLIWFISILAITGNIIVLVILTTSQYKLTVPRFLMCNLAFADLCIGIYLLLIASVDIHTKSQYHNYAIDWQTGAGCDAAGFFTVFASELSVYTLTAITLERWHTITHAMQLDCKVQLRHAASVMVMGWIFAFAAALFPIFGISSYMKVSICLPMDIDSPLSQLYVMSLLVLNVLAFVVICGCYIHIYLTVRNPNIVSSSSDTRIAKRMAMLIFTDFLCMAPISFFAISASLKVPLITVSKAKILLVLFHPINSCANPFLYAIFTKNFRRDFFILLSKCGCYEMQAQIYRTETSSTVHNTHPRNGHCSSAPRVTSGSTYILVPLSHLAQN
Briefly: HTRF cAMP agonist assay, FSHR, transiently transfected CHO-K1 cells. In kind it is cell-based. Conditions: CHO-K1 cells transiently expressing human FSHR, read-out: IC50 FSHR LANCE CAMP. An excerpt:
Example 17. HTRF cAMP Agonist Assay Protocol (for FSHR, TSHR, LHCGR)
Mammalian expression vectors designed to express either Follicle Stimulating Hormone Receptor (FSHR), Thyroid Stimulating Hormone Receptor (TSHR), or Luteinizing Hormone/Choriogonadotropin Receptor (LHCGR), were generated with an HA-tag on the N-terminus. All constructs were expressed under a human cytomegalovirus (CMV) immediate early enhancer and promoter using the pHM6 expression vector. The protein coding region was confirmed by sequence analysis to be in-frame and of the expected sequence, matching the following accession numbers: FSHR NM_000145, TSHR NM_000369, and LHCGR NM_000233.
HTRF cAMP assays were performed using Chinese Hamster Ovary (CHO-K1) cell lines transiently expressing human FSH, TSH, and LHCG receptors. 48 hours before the assay, cells were washed with PBS and then dissociated from tissue culture flasks with 0.25% trypsin. Dissociated cells were quenched in full media (F-12K Medium Corning REF #10-025-CV, 10% Avantor Seradigm FB Essence Cat #10803-034, 1% Penicillin/Streptomycin Cytiva HyClone Cat #SV30010) and then collected by centrifugation at 290×g for 5 min. Cells were resuspended in full media and dispensed into 150 mm cell culture dishes (Nest Scientific Cat #715001), at 2.3×10^6 cells/flask. 7 hours later, cells were transfected using Lipofectamine transfection reagent (Invitrogen Cat #18324020). Briefly, 60 μL of lipofectamine was dispensed into 2 mL of Opti-MEM (Gibco Cat #31985070) and incubated for 5 minutes at room temperature. Then, the mixture was added onto […] of DNA and incubated for another 20 minutes at room temperature. Cells were washed with warm (37° C.) PBS. 17.5 mL of Opti-MEM was dispensed onto the cells, followed by addition of the Opti-MEM/lipofectamine/DNA mixture. Cells were incubated overnight in a 37° C., 5% CO2 cell incubator. 17-19 hours later, Opti-MEM was aspirated off the cells and replaced with full media. Cells were incubated for another 24 hours in a 37° C., 5% CO2 cell incubator.
On the day of the assay, cells were washed with PBS and then dissociated from tissue culture flasks with 0.25% trypsin. Dissociated cells were quenched in full media and then collected by centrifugation at 290×g for 5 min. Cells were resuspended in PBS^+/+ (Corning REF #20-030-CV) to a concentration of 2×10^5 cells/mL. 10 μL/well of cells (2,000 cells/well) were dispensed into 384-well Corning plates (REF #3825), in triplicate. Cells were incubated at room temperature for 2 hours.
Example FSHR Modulator compounds were diluted in assay buffer (PBS^+/+, 0.05% BSA Sigma-Aldrich A3059, 500 μM IBMX Sigma-Aldrich 15879) to 3.5× the final assay concentration. 4 μL of test agonist was added to the cells and incubated for 1 hour at room temperature. 10 μL of cAMP detection reagents (LANCE Ultra cAMP Detection Kit PerkinElmer TRF0264) were dispensed onto the cells and plates were incubated for 2 hours at room temperature (cAMP detection reagents were made according to the PerkinElmer kit protocol). Plates were read on an Envision plate reader following PerkinElmer guidelines.
Raw data for all assays was transmitted directly from plate readers into a database for processing. All assay plates contained both positive and negative control wells to allow for data normalization and scaling. In agonist assays, negative control wells contained assay buffer and positive control wells contained […] positive control (10 nM Follicle Stimulating Hormone Sigma-Aldrich F4021, 50 nM Thyroid Stimulating Hormone Sigma-Aldrich 869006, 50 nM Luteinizing Hormone MyBioSource MBS5308806, for their respective receptors). All control wells contained DMSO at a final assay concentration that matched the test compound wells. […]
Percent control data were analyzed by non-linear regression with a sigmoidal dose response algorithm in the database to yield potency and efficacy data.
A general note: Time-resolved FRET reads energy transfer from a long-lived donor to a nearby acceptor.
As for `COc1cc2c(cc1-c1cncc(C(N)=O)c1)-c1c(c(C(=O)N(C)C(C)(C)C)nn1-c1cc(Cl)cc(Cl)c1)[S+]([O-])C2` (single isomer, unassigned) [Compound 3-06], the IC50 came to 0.0434 µM.
To `COc1cc2c(cc1-c1cncc(C(N)=O)c1)-c1c(c(C(=O)N3CCN(C(=O)OC(C)(C)C)C[C@@H]3C(C)C)nn1-c1cc(Cl)cc(Cl)c1)CC2` (stereo in doubt) [Compound 8-25A] belongs 0.754 µM; to `COc1cc2c(cc1-c1cncc(C(N)=O)c1)-c1c(c(C(=O)N3CCOCC3(C)C)nn1-c1cc(Cl)cc(Cl)c1)OC2` [Compound 2-01, 5-[1-(3,5-dichlorophenyl)-3-(3,3-dimethylmorpholine-4-carbonyl)-7-methoxy-5H-isochromeno[4,3-c]pyrazol-8-yl]pyridine-3-carboxamide], 0.00344 µM.
To `COc1cc2c(cc1-c1cncc(C(N)=O)c1)-c1c(c(C(=O)N(C)C(C)(C)C)nn1-c1cc(Cl)cc(Cl)c1)OC2` [Compound 2-02] belongs 0.00198 µM; to `COc1cc2c(cc1-c1cncc(C(N)=O)c1)-c1c(c(C(=O)N3CCOCC3(C)C)nn1-c1ccsc1)OC2` [Compound 2-03], 0.022 µM.
To `COc1cc2c(cc1-c1cncc(C(N)=O)c1)-c1c(c(C(=O)N(C)C(C)(C)C)nn1-c1ccsc1)OC2` [Compound 2-04] belongs 0.00792 µM; to `COc1cc2c(cc1-c1ccn(C)n1)-c1c(c(C(=O)N3CCOCC3(C)C)nn1-c1cc(Cl)cc(Cl)c1)OC2` [Compound 2-05, [1-(3,5-dichlorophenyl)-7-methoxy-8-(1-methylpyrazol-3-yl)-5H-isochromeno[4,3-c]pyrazol-3-yl]-(3,3-dimethylmorpholin-4-yl)methanone], 0.638 µM; to `COc1cc2c(cc1-c1ccn(C)n1)-c1c(c(C(=O)N(C)C(C)(C)C)nn1-c1cc(Cl)cc(Cl)c1)OC2` [Compound 2-06], 0.195 µM.
For `COc1cc2c(cc1-c1ccn(C)n1)-c1c(c(C(=O)N3CCOCC3(C)C)nn1-c1ccsc1)OC2` [Compound 2-07], the IC50 amounted to 2.41 µM.
On to `COc1cc2c(cc1-c1ccn(C)n1)-c1c(c(C(=O)N(C)C(C)(C)C)nn1-c1ccsc1)OC2` [Compound 2-08], for which the IC50 was found to be 0.475 µM.
For the compound `COc1cc2c(cc1-c1cncc(C(N)=O)c1)-c1c(c(C(=O)N3CCOCC3(C)C)nn1-c1cc(Cl)cc(Cl)c1)SC2` [Compound 3-01, 5-[1-(3,5-dichlorophenyl)-3-(3,3-dimethylmorpholine-4-carbonyl)-7-methoxy-5H-isothiochromeno[4,3-c]pyrazol-8-yl]pyridine-3-carboxamide], the IC50 is 0.00672 µM.
To `COc1cc2c(cc1-c1cncc(C(N)=O)c1)-c1c(c(C(=O)N(C)C(C)(C)C)nn1-c1cc(Cl)cc(Cl)c1)SC2` [Compound 3-02, N-tert-butyl-8-(5-carbamoyl-3-pyridyl)-1-(3,5-dichlorophenyl)-7-methoxy-N-methyl-5H-isothiochromeno[4,3-c]pyrazole-3-carboxamide] belongs 0.00392 µM; to `COc1cc2c(cc1-c1ccn(C)n1)-c1c(c(C(=O)N3CCOCC3(C)C)nn1-c1cc(Cl)cc(Cl)c1)SC2` [Compound 3-03, (1-(3,5-dichlorophenyl)-7-methoxy-8-(1-methyl-1H-pyrazol-3-yl)-1,5-dihydroisothiochromeno[4,3-c]pyrazol-3-yl)(3,3-dimethylmorpholino)methanone], 0.325 µM; to `COc1cc2c(cc1-c1ccn(C)n1)-c1c(c(C(=O)N(C)C(C)(C)C)nn1-c1cc(Cl)cc(Cl)c1)SC2` [Compound 3-04, N-tert-butyl-1-(3,5-dichlorophenyl)-7-methoxy-N-methyl-8-(1-methylpyrazol-3-yl)-5H-isothiochromeno[4,3-c]pyrazole-3-carboxamide], 0.223 µM.
As for `COc1cc2c(cc1-c1cncc(C(N)=O)c1)-c1c(c(C(=O)N3CCOCC3(C)C)nn1-c1cc(Cl)cc(Cl)c1)[S+]([O-])C2` (stereo not drawn) [Compound 3-05], the IC50 is 0.0557 µM.
The result for `COc1cc2c(cc1-c1cncc(C(N)=O)c1)-c1c(c(C(=O)N(C)C(C)(C)C)nn1-c1cc(Cl)cc(Cl)c1)[S+]([O-])C2` (stereo not drawn) [Compound 3-07, N-tert-butyl-8-(5-carbamoyl-3-pyridyl)-1-(3,5-dichlorophenyl)-7-methoxy-N-methyl-4-oxo-5H-isothiochromeno[4,3-c]pyrazole-3-carboxamide] reads 4.56 µM; that for `COc1cc2oc3c(C(=O)N4CCOCC4(C)C)nn(-c4ccsc4)c3c2cc1-c1cncc(C#N)c1` [Compound 4-03, 5-[3-(3,3-dimethylmorpholine-4-carbonyl)-6-methoxy-1-(3-thienyl)benzofuro[3,2-c]pyrazol-7-yl]pyridine-3-carbonitrile], 0.579 µM; that for `COc1cc2oc3c(C(=O)N4CCOCC4(C)C)n(-c4ccsc4)nc3c2cc1-c1cncc(C(N)=O)c1` [Compound 4-03A], 1.86 µM.
The result for `COc1cc2oc3c(C(=O)N4CCOCC4(C)C)nn(-c4ccsc4)c3c2cc1-c1cncc(C#N)c1` [Compound 4-03B] reads 2.36 µM; that for `COc1cc2oc3c(C(=O)N(C)C(C)(C)C)n(-c4ccsc4)nc3c2cc1-c1cncc(C(N)=O)c1` [Compound 4-04A], 1.36 µM.
To `COc1cc2oc3c(C(=O)N(C)C(C)(C)C)nn(-c4ccsc4)c3c2cc1-c1cncc(C(N)=O)c1` [Compound 4-04] belongs 0.586 µM.
As for `COc1cc2oc3c(C(=O)N4CCOCC4(C)C)nn(-c4ccsc4)c3c2cc1-c1ccn(C)n1` [Compound 4-07, (3,3-dimethylmorpholin-4-yl)-[6-methoxy-7-(1-methylpyrazol-3-yl)-1-(3-thienyl)benzofuro[3,2-c]pyrazol-3-yl]methanone], the IC50 amounted to 2.81 µM.
Consider `COc1cc2c(cc1-c1cncc(C(N)=O)c1)-c1c(c(C(=O)N3CCOCC3(C)C)nn1-c1cc(Cl)cc(Cl)c1)C2` [Compound 5-01, 5-[1-(3,5-dichlorophenyl)-3-(3,3-dimethylmorpholine-4-carbonyl)-6-methoxy-4H-indeno[1,2-c]pyrazol-7-yl]pyridine-3-carboxamide], for which the IC50 came out at 0.0148 µM.
To `COc1cc2c(cc1-c1cncc(C(N)=O)c1)-c1c(c(C(=O)N(C)C(C)(C)C)nn1-c1cc(Cl)cc(Cl)c1)C2` [Compound 5-02, N-tert-butyl-7-(5-carbamoyl-3-pyridyl)-1-(3,5-dichlorophenyl)-6-methoxy-N-methyl-4H-indeno[1,2-c]pyrazole-3-carboxamide] belongs 0.197 µM.

Values taken from patent publication US20260008783A1, “MODULATORS OF FSHR AND USES THEREOF” (Celmatix Inc., priority 2022, published 2026).
